Structures can show the parent of a compound that is named as a salt.
What was measured:
human CB1 receptor = target: T1, human CB1 receptor (Homo sapiens, UniProt P21554); experiment: intracellular cyclic AMP functional test in U373MG cells (HTRF cAMP Dynamic Kit); type: cell-based; details: U373MG cells naturally expressing the human CB1 receptor
T1 construct: U373MG cells naturally expressing the human CB1 receptor; endogenous in cells; host or cells: U373MG cells
Procedure: The compounds according to the invention have formed the subject of pharmacological assays which make it possible to determine the activity with regard to human CB1-type cannabinoid receptors. The effectiveness of the compounds of formula (I) was determined in a functional test in which the activity of the CB1 cannabinoid receptors is measured (intracellular cyclic AMP test). The test for detecting intracellular cyclic AMP in U373MG cells naturally expressing the human CB1 receptor was carried out as described in the reference: Bouaboula et al., 1995, J. Biol. Chem. 270: 13973-13980. The HTRF cAMP Dynamic Kit from CisBio was used to quantify the intracellular cyclic AMP. In this test, the IC50 values are between 0.001 μM and 2 μM.

[1] = target: T2, CB1-type cannabinoid receptor (Mus musculus, UniProt P47746); experiment: inhibition of gastrointestinal transit induced by racemic CP55,940 in mice (charcoal bolus); type: in vivo; details: 1 mg/kg po; male CD1 mice; CP55,940 0.15 mg/kg ip; progression of charcoal bolus
T2 construct: male CD1 mice receive the test product per os; from tissue; host or cells: whole animal, male CD1 mice
T2 sequence (P47746 whole entry): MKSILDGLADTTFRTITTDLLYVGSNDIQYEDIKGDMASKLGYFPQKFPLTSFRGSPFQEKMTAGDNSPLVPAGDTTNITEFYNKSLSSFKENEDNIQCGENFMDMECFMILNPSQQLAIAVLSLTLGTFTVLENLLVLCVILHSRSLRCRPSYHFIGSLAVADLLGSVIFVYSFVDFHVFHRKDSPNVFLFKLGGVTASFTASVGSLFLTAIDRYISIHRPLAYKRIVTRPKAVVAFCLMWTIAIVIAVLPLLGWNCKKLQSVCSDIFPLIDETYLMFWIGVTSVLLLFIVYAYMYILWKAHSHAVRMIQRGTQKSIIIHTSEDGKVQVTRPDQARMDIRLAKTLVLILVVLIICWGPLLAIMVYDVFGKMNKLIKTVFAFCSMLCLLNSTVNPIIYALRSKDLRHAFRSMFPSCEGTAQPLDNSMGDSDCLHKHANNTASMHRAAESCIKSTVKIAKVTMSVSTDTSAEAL
Text: Thirty minutes later, the animals are sacrificed by euthanasia (CO2/O2) and the intestine is dissected. The progression of the charcoal bolus in the intestine is expressed as percentage of the total length of the intestine.
Consequently, the compounds of the invention of formula (I) are in vitro and in vivo CB1-type cannabinoid receptor antagonists. Some compounds are active in vivo with regard to both the hypothermia test and the transit test, and some compounds show activities split up between the hypothermia test and the transit test.

CB cannabinoid receptor = target: T3, CB cannabinoid receptor (Mus musculus, UniProt P47746); experiment: hypothermia induced by CB agonist racemic CP55,940 in mice (rectal temperature); type: in vivo; details: 3 mg/kg po; male CD1 mice; CP55,940 1.25 mg/kg i.p.; rectal temperature at 90 minutes
T3 construct: from tissue; host or cells: whole animal, male CD1 mice
T3 sequence (P47746 whole entry): as above
Procedure: Other assays consisting in measuring the in vivo activity of the compounds of the invention were carried out. Their antagonist activity was shown by means of the model of […] induced by a CB cannabinoid receptor agonist (racemic CP55,940 ((1RS,3RS,4RS)-3-[2-hydroxy-4-(1,1-dimethylheptyl)phenyl]-4-(3-hydroxypropyl)cyclohexan-1-ol) at a dose of 1.25 mg/kg) in mice, according to the method described by Pertwee R. G. in Marijuana 84, Harvey D. J. eds., Oxford IRL
Press, 263-277 (1985). At time 0 min, the rectal temperature of male CD1 mice is measured before injection of the test product. At 30 minutes, a further measurement of the rectal temperature of the mice is taken and the racemic CP55,940 agonist ((1RS,3RS,4RS)-3-[2-hydroxy-4-(1,1-dimethylheptyl)phenyl]-4-(3-hydroxypropyl)cyclohexan-1-ol) (1.25 mg/kg i.p. in 10% cremophor) is administered. At 90 minutes, the rectal temperature is again measured. The results are expressed as % with respect to the control batched injected with CP 55,940 (minimum temperature) and to the carrier batch without treatment with CP55,940 (maximum temperature).

T1 sequence (P21554 whole entry): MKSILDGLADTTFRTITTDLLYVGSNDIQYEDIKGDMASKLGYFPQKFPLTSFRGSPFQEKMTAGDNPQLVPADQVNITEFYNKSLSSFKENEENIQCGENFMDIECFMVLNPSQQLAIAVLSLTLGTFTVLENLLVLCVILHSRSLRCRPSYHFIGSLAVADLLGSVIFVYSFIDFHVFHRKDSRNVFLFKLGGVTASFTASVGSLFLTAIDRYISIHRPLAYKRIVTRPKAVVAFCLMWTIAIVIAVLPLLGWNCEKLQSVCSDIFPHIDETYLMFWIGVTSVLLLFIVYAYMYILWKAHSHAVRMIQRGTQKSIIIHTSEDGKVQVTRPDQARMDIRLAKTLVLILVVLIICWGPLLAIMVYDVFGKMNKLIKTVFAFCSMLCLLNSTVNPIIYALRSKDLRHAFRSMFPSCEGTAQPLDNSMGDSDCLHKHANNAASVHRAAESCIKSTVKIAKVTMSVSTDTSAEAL

Row | Structure (SMILES) | melting point [°C] | IC50 (human CB1 receptor) [nM] | percentage of inhibition [1] [%] | percentage of inhibition (CB cannabinoid receptor) [%]
1 | CS(=O)(=O)N(c1cccc(C(=O)NC(CO)CO)c1)C1CN(C(c2ccc(Cl)cc2)c2ccc(Cl)cc2)C1 [Compound No. 17, 3-({1-[Bis(4-chlorophenyl)methyl]azetidin-3-yl}(methanesulphonyl)amino)-N-(2-hydroxy-1-(hydroxymethyl)ethyl)benzamide] | 192 to 194 |  |  | 
2 | CS(=O)(=O)N(c1cc(F)cc(C(=O)NCC(O)C(F)(F)F)c1)C1CN(C(c2ccc(Cl)cc2)c2ccc(Cl)cc2)C1 (centres unmarked) [compound 30, 3-({1-[bis(4-chlorophenyl)methyl]azetidin-3-yl}(methanesulphonyl)amino)-5-fluoro-N-(3,3,3-trifluoro-2-hydroxyprop-1-yl)benzamide] |  | 66 |  | 
3 | CS(=O)(=O)N(c1cccc(C(=O)NC2(CCO)CC2)c1)C1CN(C(c2ccc(Cl)cc2)c2ccc(Cl)cc2)C1 [compound 21, 3-({1-[bis(4-chlorophenyl)methyl]azetidin-3-yl}(methanesulphonyl)amino)-N-[1-(2-hydroxyethyl)cyclopropyl]benzamide] |  | 38 |  | 
4 | C[C@@H](CO)NC(=O)c1cc(N(C2CN(C(c3ccc(Cl)cc3)c3ccc(Cl)cc3)C2)S(C)(=O)=O)cc(C(F)(F)F)c1 [compound 36, (+)-3-({1-[bis(4-chlorophenyl)methyl]azetidin-3-yl}(methanesulphonyl)amino)-N—((S)-1-hydroxyprop-2-yl)-5-(trifluoromethyl)benzamide] |  | 16 | 85 | 
5 | CC(C)(O)CNC(=O)c1cccc(N(C2CN(C(c3ccc(Cl)cc3)c3ccc(Cl)cc3)C2)S(C)(=O)=O)c1 [compound 13, 3-({1-[bis(4-chlorophenyl)methyl]azetidin-3-yl}(methanesulphonyl)amino)-N-(2-hydroxy-2-methylprop-1-yl)benzamide] | 140 |  |  | 
6 | CC1(C)OCC(CNC(=O)c2cccc(N(C3CN(C(c4ccc(Cl)cc4)c4ccc(Cl)cc4)C3)S(C)(=O)=O)c2)O1 (single isomer, unassigned; (-)) [Compound No. 5, (−)-3-({1-[Bis(4-chlorophenyl)methyl]azetidin-3-yl}(methanesulphonyl)amino)-N-(2,2-dimethyl-1,3-dioxolan-4-ylmethyl)benzamide] |  | 22 |  | 
7 | CC(CO)(CO)NC(=O)c1cccc(N(C2CN(C(c3ccc(Cl)cc3)c3ccc(Cl)cc3)C2)S(C)(=O)=O)c1 [compound 18, 3-({1-[bis(4-chlorophenyl)methyl]azetidin-3-yl}(methanesulphonyl)amino)-N-[1,3-dihydroxy-2-methylprop-2-yl]benzamide] | 192 | 6 |  | 

Results, then the molecule that gave them:

Row | melting point [°C] | IC50 (human CB1 receptor) [nM] | percentage of inhibition [1] [%] | percentage of inhibition (CB cannabinoid receptor) [%] | Structure (SMILES)
8 |  |  | 91 |  | CS(=O)(=O)N(c1cc(C(=O)N[C@H]2CCC[C@@H]2O)cc(C(F)(F)F)c1)C1CN(C(c2ccc(Cl)cc2)c2ccc(Cl)cc2)C1 (racemic) [compound 41, 3-({1-[bis(4-chlorophenyl)methyl]azetidin-3-yl} (methanesulphonyl)amino)-N-((1SR,2SR)-2-hydroxycyclopent-1-yl)-5-(trifluoromethyl)benzamide]
9 |  | 61 |  |  | CS(=O)(=O)N(c1cccc(C(=O)NCCO)c1)C1CN(C(c2ccc(Cl)cc2)c2ccc(Cl)cc2)C1 [Compound No. 7, 3-({1-[Bis(4-chlorophenyl)methyl]azetidin-3-yl}(methanesulphonyl)amino)-N-(2-hydroxyethyl)benzamide hydrochloride (1:1)]
10 | 159 to 161 |  | 58 |  | CC(CO)(CO)NC(=O)c1cc(F)cc(N(C2CN(C(c3ccc(Cl)cc3)c3ccc(Cl)cc3)C2)S(C)(=O)=O)c1 [Compound No. 27, 3-({1-[Bis(4-chlorophenyl)methyl]azetidin-3-yl}(methanesulphonyl)amino)-5-fluoro-N-(2-hydroxy-1-hydroxymethyl-1-methylethyl)benzamide]
11 | 162 |  |  |  | CC(C)(CO)NC(=O)c1cccc(N(C2CN(C(c3ccc(Cl)cc3)c3ccc(Cl)cc3)C2)S(C)(=O)=O)c1 [compound 16, 3-({1-[bis(4-chlorophenyl)methyl]azetidin-3-yl}(methanesulphonyl)amino)-N-(2-hydroxy-1,1-dimethylethyl)benzamide]
12 | 192 to 194 | 15 | 82 | 30 | C[C@@H](CO)NC(=O)c1cccc(N(C2CN(C(c3ccc(Cl)cc3)c3ccc(Cl)cc3)C2)S(C)(=O)=O)c1 [Compound No. 9, (+)-3-({1-[Bis(4-chlorophenyl)methyl]azetidin-3-yl}(methanesulphonyl)amino)-N-(2-hydroxy-1-methylethyl)benzamide]
13 | 144 to 146 | 20 |  |  | CS(=O)(=O)N(c1cc(F)cc(C(=O)NC(CO)CO)c1)C1CN(C(c2ccc(Cl)cc2)c2ccc(Cl)cc2)C1 [Compound No. 26, 3-({1-[Bis(4-chlorophenyl)methyl]azetidin-3-yl}(methanesulphonyl)amino)-5-fluoro-N-(2-hydroxy-1-(hydroxymethyl)ethyl)benzamide]
14 | 148 to 150 |  |  | 18 | CC(CO)NC(=O)c1cc(F)cc(N(C2CN(C(c3ccc(Cl)cc3)c3ccc(Cl)cc3)C2)S(C)(=O)=O)c1 (single isomer, unassigned; (+)) [Compound No. 25, (+)-3-({1-[Bis(4-chlorophenyl)methyl]azetidin-3-yl}(methanesulphonyl)amino)-5-fluoro-N-(2-hydroxy-1-methylethyl)benzamide]
15 |  | 72 |  |  | CS(=O)(=O)N(c1cc(F)cc(C(=O)N[C@H]2COC[C@@H]2O)c1)C1CN(C(c2ccc(Cl)cc2)c2ccc(Cl)cc2)C1 (racemic) [compound 47, 3-({1-[bis(4-chlorophenyl)methyl]azetidin-3-yl}(methanesulphonyl)amino)-5-fluoro-N-((3SR,4RS)-4-hydroxytetrahydrofuran-3-yl)benzamide]
